Measured values reported in ChEMBL document CHEMBL1201862, “PubChem BioAssay data set” (2004).
“And” between values parts separate entries of the source, which are not always exact repeats. Equal values may be shown once. The source made the active and inactive calls.

Columns and labels:
Estrogen receptor = Estrogen receptor (Homo sapiens, UniProt P03372);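 further: potency for inhibiting coactivator peptide recruitment to the receptor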
[1] = target: Glyceraldehyde-3-phosphate dehydrogenase (Homo sapiens, UniProt P04406)
Chain of Glyceraldehyde-3-phosphate dehydrogenase (P04406 whole entry): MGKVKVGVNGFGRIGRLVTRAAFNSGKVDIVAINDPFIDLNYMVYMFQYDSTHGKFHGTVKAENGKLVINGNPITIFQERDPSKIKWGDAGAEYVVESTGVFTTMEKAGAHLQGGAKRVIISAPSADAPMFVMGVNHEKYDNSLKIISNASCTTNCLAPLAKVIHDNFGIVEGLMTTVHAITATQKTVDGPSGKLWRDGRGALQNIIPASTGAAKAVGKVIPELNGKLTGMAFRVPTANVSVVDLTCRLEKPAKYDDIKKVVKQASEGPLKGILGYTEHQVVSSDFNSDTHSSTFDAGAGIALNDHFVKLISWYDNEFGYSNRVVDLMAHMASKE

Bcl-2-related protein A1 [2] = target: T1, Bcl-2-related protein A1 (Mus musculus, UniProt Q07440); test: Bfl-1 inhibitors blocking BH3 peptide binding, confirmation, biochemical, TR-FRET, mouse Bfl-1 (AID 621);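 further: TR-FRET binding of GST-Bfl-1 to FITC-labelled Bid peptide via terbium antibody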
T1 sequence (Q07440 whole entry): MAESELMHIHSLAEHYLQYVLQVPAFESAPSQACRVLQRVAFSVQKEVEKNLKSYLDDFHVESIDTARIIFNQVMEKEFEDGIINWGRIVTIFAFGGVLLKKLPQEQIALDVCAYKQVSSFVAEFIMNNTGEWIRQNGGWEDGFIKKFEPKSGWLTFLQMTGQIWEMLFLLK

Bcl-2-related protein A1 [3] = target: T1, Bcl-2-related protein A1; test: Bfl-1 binding inhibitors, SAR follow-up, biochemical, fluorescence polarization (AID 1070)
[4] = C. albicans growth with fluconazole, confirmation, fluorescence, retest (AID 2467); format: functional, cell-based
[5] = inhibitors of intracellular T. cruzi replication, confirmation, NIH3T3 host cells, beta-gal luminescence (AID 2044); format: functional, cell-based;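 further: intracellular parasites grown in NIH/3T3 mouse fibroblasts as host cells; luminescent beta-galactosidase reporter signal from transgenic T. cruzi replicating inside host cells; inhibitors lower the luminescence signal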
[6] = cytotoxicity toward NIH3T3 fibroblasts, dose response, counter-screen, cell-based, ATP luminescence, mouse fibroblasts (AID 2010); format: functional;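 further: cells exposed to compound for about 90 hours before reading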
[7] = target: T2, Ubiquitin-conjugating enzyme E2 N (Homo sapiens, UniProt P61088); format: functional;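 further: Dose-response confirmation in a TR-FRET assay detecting UBC13-driven polyubiquitin chain formation, inhibition measured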
T2 sequence (P61088 whole entry): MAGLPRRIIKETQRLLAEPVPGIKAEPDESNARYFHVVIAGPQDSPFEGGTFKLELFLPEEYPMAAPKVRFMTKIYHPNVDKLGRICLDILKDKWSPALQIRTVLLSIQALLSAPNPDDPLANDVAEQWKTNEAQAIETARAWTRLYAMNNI

[8] = target: T3, Microphthalmia-associated transcription factor (Homo sapiens, UniProt O75030); test: TRPM1 promoter luciferase signal decrease, dose response, MITF inhibitor project, cell-based, SK-MEL-5, cherry-picked, set 3 (AID 493073); format: functional
T3 sequence (O75030 whole entry): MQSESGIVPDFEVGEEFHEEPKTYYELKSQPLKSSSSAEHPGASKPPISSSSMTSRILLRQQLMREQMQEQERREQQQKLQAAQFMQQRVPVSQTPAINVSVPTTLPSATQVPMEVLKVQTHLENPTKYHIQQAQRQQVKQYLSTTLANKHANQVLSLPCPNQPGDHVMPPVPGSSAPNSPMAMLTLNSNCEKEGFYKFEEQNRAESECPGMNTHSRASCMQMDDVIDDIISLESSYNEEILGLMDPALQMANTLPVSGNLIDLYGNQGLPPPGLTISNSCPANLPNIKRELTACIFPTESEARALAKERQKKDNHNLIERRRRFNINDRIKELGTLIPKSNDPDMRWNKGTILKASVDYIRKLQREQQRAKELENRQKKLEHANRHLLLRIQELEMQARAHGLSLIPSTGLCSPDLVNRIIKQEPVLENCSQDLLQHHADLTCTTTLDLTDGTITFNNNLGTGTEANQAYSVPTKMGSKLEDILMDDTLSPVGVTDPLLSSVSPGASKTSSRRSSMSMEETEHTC

A-375 = test: MITF: Counter assay: A375 proliferation Measured in Cell-Based System Using Plate Reader - 2084-03_Inhibitor_Dose_DryPowder_Activity. [Related pubchem assays (depositor defined):AID488944]; format: functional; conditions: Homo sapiens
INS1 = test: beta cell apoptosis inhibitors, cytokine rescue, dose response, luminescence, retest (AID 449756); format: functional, cell-based;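 further: cell death triggered by IL-1 beta plus TNF-alpha plus IFN-gamma mixture; protective hits raise ATP signal compared with cytokine alone wells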
cells [9] = test: cells
[10] = target: Peroxisome proliferator-activated receptor gamma/Nuclear receptor coactivator 2 (Homo sapiens, UniProt P37231); format: functional;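 further: agonist potency for raising coactivator recruitment to the receptor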
[11] = target: Peroxisome proliferator-activated receptor gamma/Nuclear receptor coactivator 1 (Homo sapiens, UniProt P37231); format: functional;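 further: agonist potency as compounds enhance coactivator SRC-1 recruitment to PPARgamma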
[12] = target: Peroxisome proliferator-activated receptor gamma/Nuclear receptor coactivator 3 (Homo sapiens, UniProt P37231); format: functional;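 further: agonist potency for raising coactivator recruitment to the receptor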
BJ [13] = test: cytotoxicity toward BJ-TERT fibroblasts, dose response, cell-based, RAS-independent, luminescence (AID 1933); format: functional; conditions: Homo sapiens
BJ [14] = test: cells; format: functional, cell-based; conditions: Homo sapiens
[15] = target: Protein-tyrosine kinase 2-beta (Homo sapiens, UniProt Q14289);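 further: potency of inhibitors of PYK2 kinase phosphorylation of poly-GT substrate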
Chain of Protein-tyrosine kinase 2-beta (Q14289 whole entry): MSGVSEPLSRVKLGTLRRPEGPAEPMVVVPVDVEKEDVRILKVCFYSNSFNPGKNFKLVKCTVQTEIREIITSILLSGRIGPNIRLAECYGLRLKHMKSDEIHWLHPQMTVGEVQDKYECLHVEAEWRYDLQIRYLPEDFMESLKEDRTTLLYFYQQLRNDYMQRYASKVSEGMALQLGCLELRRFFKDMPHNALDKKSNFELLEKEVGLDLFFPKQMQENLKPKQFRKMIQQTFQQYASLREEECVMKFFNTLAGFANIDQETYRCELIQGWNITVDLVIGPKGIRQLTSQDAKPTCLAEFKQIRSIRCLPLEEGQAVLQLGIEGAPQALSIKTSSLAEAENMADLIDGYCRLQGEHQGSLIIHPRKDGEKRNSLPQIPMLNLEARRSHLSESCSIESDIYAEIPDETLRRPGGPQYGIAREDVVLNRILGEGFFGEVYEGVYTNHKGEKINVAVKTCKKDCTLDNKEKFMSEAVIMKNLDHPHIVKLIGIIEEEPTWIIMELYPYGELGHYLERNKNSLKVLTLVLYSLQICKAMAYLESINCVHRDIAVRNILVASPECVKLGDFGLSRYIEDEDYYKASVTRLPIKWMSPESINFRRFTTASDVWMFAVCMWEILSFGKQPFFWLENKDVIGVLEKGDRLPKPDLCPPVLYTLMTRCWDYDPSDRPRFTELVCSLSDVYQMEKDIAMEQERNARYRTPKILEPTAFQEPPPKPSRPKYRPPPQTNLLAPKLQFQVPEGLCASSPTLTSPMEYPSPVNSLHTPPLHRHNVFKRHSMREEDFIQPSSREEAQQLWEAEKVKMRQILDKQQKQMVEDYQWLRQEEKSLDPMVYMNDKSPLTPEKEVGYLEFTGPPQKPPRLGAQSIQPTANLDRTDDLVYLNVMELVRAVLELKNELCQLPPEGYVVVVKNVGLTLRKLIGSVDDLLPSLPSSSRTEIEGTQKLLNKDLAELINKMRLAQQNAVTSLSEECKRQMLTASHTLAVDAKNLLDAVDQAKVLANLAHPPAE

BJ [16] = test: cytotoxicity toward BJ-TERT-LT-ST fibroblasts, dose response, cell-based, RAS-independent, luminescence (AID 1935); format: functional; conditions: Homo sapiens;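 further: BJ fibroblasts immortalized with TERT plus LT and ST oncogenes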
[17] = cytotoxicity toward DRD oncogenic fibroblasts, dose response, cell-based, non-viral oncogenic, luminescence (AID 1934); format: functional; conditions: Homo sapiens
[18] = target: T4, Tyrosine-protein phosphatase non-receptor type 11 (Homo sapiens, UniProt Q06124); test: SHP2 phosphatase inhibition, dose response, selectivity assay for STEP inhibitor project, biochemical (AID 602367); format: functional; conditions: read-out: IC50_Mean
T4 sequence (Q06124 whole entry): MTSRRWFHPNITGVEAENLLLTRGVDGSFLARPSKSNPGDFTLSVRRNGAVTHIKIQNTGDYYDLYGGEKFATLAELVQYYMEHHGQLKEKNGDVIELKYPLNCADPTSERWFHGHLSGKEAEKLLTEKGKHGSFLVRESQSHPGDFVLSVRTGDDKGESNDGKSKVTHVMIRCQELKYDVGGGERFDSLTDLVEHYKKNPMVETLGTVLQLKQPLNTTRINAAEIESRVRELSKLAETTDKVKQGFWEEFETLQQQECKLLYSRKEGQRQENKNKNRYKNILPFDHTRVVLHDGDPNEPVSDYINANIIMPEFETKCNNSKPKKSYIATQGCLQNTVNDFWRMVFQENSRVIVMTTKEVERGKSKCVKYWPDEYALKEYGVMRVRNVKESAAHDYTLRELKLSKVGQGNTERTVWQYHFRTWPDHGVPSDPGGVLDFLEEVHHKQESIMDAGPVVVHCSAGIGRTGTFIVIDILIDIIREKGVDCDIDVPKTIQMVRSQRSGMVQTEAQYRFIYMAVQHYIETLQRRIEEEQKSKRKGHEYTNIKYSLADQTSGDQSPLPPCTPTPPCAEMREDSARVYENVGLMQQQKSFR

Melanocortin receptor 4 = Melanocortin receptor 4 (Homo sapiens, UniProt P32245); format: functional, cell-based;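 further: Cell-based assay with luminescence read-out, confirmatory dose-response testing for agonist activity of biased ligands at MC4R; human U2OS cells with tagged receptor and beta-arrestin; potency of agonists that increase receptor coupling to beta-arrestin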
Chain of Melanocortin receptor 4 (P32245 whole entry): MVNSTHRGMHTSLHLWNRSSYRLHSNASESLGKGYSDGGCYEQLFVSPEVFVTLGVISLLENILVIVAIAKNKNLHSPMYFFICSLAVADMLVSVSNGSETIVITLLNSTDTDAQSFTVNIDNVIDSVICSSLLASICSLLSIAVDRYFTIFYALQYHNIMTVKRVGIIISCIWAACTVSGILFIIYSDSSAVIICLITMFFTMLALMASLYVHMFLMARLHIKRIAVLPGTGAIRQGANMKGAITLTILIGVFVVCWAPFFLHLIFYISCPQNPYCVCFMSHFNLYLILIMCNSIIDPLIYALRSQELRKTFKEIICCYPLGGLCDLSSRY

[19] = target: T5, Tyrosine-protein phosphatase non-receptor type 5 (Homo sapiens, UniProt P54829); test: STEP phosphatase inhibitors, confirmation, biochemical, fluorescence intensity, uHTS hits (AID 602372); format: functional; conditions: read-out: IC50_Mean
T5 sequence (P54829 whole entry): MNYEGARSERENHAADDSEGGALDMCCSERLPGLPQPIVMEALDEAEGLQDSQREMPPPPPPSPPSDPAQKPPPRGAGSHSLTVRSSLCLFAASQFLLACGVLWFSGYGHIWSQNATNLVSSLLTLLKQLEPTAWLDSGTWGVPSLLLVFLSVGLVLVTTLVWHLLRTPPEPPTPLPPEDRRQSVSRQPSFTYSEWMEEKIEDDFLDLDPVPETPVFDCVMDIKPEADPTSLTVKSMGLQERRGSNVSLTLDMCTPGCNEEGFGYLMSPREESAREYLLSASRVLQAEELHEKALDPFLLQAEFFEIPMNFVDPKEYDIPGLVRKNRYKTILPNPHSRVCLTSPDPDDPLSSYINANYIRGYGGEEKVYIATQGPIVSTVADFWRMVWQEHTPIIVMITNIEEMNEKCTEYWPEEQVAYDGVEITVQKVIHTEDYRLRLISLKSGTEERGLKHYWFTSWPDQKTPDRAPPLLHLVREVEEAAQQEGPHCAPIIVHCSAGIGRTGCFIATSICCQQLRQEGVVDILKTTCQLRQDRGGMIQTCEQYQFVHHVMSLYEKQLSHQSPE

[20] = target: Dual specificity protein phosphatase 3 (Homo sapiens, UniProt P51452); test: VHR phosphatase inhibition, dose response, selectivity assay for STEP inhibitor project, biochemical (AID 602374); format: functional; conditions: read-out: IC50_Mean
Chain of Dual specificity protein phosphatase 3 (P51452 whole entry): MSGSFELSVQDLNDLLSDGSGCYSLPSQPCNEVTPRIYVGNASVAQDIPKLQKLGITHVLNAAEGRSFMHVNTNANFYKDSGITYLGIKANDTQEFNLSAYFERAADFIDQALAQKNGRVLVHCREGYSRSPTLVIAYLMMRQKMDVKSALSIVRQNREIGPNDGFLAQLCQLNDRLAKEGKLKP

Estrogen receptor beta [21] = target: T6, Estrogen receptor beta (Homo sapiens, UniProt Q92731);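 further: recombinant ER-beta bound to coactivator SRC1 peptide in presence of estradiol agonist; inhibitors block coactivator peptide binding and lower the FRET signal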
T6 sequence (Q92731 whole entry): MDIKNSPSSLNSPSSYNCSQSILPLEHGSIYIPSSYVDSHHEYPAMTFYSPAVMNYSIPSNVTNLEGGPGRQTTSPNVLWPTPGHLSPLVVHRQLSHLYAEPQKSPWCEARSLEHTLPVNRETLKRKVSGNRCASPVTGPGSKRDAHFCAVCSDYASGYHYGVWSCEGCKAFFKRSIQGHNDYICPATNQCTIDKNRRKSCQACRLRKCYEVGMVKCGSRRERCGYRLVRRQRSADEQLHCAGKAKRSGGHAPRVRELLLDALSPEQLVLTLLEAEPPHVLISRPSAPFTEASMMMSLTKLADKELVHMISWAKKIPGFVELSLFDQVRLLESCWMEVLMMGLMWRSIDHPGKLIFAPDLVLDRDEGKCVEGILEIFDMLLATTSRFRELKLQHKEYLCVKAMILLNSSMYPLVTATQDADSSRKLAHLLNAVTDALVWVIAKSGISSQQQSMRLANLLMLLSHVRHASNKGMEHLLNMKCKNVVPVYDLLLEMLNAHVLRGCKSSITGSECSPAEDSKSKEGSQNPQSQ

Estrogen receptor beta [22] = target: T6, Estrogen receptor beta; test: ERβ–SRC-3 coactivator interaction inhibitors, confirmation, orthogonal assay, biochemical, ELISA, streptavidin-HRP readout (AID 1060)
[23] = target: T7, Carboxy-terminal domain RNA polymerase II polypeptide A small phosphatase 1 (Homo sapiens, UniProt Q9GZU7); test: inhibitors of CTDSP1, concentration-response testing, biochemical assay, absorbance-based, actives from ultra-high-throughput screening (AID 540297); format: functional
T7 sequence (Q9GZU7 whole entry): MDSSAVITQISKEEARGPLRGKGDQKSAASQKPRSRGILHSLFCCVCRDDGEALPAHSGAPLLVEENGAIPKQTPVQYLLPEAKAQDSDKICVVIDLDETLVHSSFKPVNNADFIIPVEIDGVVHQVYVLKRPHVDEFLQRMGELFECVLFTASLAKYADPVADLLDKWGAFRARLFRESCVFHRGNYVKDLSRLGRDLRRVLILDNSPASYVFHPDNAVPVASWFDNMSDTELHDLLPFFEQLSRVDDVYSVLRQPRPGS

Galanin receptor type 3 = target: T8, Galanin receptor type 3 (Homo sapiens, UniProt O60755); test: Fluorescence-based cell-based primary high throughput dose response assay to identify antagonists of the Galanin Receptor 3 (GalR3).; format: functional
T8 sequence (O60755 whole entry): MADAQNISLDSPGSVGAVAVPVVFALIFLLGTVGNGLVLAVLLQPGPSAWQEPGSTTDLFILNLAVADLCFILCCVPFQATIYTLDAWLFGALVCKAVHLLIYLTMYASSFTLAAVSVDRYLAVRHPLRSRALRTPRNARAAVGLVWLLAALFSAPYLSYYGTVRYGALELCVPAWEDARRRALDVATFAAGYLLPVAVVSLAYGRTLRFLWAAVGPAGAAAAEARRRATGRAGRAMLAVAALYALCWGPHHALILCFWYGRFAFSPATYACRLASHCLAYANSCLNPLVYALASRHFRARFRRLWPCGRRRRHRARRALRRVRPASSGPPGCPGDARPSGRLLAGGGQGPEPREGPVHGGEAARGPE

cells [24] = format: functional, cell-based; conditions: HEK-CNG
[25] = target: Epstein-Barr nuclear antigen 1 (Epstein-Barr virus (strain B95-8) (HHV-4) (Human herpesvirus 4), UniProt P03211); test: EBNA-1 inhibitors, dose response, biochemical, fluorescence polarization, 1536-well (AID 2381); design: species or system human gammaherpesvirus 4;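 further: fluorescence polarization of a Cy5 DNA probe bound by EBNA-1 protein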
Chain of Epstein-Barr nuclear antigen 1 (P03211 whole entry): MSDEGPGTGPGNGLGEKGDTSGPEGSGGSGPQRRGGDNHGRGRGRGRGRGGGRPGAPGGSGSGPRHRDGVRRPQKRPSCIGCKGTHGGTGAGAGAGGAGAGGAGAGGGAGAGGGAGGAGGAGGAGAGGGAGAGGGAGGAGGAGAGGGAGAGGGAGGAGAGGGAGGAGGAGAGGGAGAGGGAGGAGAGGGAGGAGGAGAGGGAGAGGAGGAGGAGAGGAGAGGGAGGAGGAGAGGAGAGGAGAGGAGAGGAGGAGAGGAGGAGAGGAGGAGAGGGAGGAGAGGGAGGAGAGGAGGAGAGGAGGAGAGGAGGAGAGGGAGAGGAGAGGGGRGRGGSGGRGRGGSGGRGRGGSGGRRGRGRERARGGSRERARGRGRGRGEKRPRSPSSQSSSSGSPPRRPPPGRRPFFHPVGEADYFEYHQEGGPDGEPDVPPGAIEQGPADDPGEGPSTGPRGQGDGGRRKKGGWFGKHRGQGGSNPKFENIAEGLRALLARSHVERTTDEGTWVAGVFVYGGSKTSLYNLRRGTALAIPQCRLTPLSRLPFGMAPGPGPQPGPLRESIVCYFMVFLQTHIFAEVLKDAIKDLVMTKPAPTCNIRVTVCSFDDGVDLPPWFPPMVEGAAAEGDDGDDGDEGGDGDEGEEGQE

[26] = target: Lytic switch protein BZLF1 (Epstein-Barr virus (strain B95-8) (HHV-4) (Human herpesvirus 4), UniProt P03206); test: EBV ZTA inhibitors, dose response, counter-screen for EBNA-1 inhibitor project, biochemical, fluorescence polarization, Epstein-Barr virus, 1536-well (AID 2377); design: species or system human gammaherpesvirus 4;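 further: fluorescence polarization of Cy5-labelled ZRE DNA probe bound by purified Zta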
Chain of Lytic switch protein BZLF1 (P03206 whole entry): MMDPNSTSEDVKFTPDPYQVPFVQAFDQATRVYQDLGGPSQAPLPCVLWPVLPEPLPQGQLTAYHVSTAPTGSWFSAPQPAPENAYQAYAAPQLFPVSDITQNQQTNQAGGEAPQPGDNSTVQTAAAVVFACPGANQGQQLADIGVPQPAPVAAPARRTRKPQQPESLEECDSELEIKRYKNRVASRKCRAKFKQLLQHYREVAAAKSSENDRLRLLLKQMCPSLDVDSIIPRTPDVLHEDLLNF

Chain of Estrogen receptor (P03372 whole entry): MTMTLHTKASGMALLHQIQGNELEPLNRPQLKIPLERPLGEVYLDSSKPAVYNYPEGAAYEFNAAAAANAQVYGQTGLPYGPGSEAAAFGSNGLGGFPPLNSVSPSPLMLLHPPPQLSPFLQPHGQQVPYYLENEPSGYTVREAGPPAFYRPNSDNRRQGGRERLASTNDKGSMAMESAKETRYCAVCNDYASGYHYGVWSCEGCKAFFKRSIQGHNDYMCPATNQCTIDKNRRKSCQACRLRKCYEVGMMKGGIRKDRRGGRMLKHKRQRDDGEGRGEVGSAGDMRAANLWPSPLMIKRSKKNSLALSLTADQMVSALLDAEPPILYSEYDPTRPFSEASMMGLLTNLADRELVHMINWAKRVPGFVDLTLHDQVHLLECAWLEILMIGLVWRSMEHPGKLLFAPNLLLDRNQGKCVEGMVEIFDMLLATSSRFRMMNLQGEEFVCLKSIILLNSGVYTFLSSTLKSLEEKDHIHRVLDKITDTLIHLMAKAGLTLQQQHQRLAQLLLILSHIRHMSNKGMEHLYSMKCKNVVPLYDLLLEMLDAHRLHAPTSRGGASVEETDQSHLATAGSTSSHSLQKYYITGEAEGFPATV

SMILES: NC(=O)c1ccc(F)cc1
- IC50 (Estrogen receptor): > 50 µM (not active)

SMILES: CN1CCN(C2CC(=O)N(c3ccc(Cl)c(Cl)c3)C2=O)CC1 (stereo not given)
- IC50 [1]: > 100 µM (not active)
- IC50 (Bcl-2-related protein A1 [2]): > 100 µM (not active)
- IC50 (Bcl-2-related protein A1 [3]): > 100 µM (not active)

SMILES: CC1CCC(C(C)C)C(OC(=O)Cn2c(-c3ccc(Br)cc3)[n+](C)c3ccccc32)C1 (stereo not given)
- EC50 [4]: 227 nM (active) and 290 nM (active)
- EC50 [5]: < 0.1 µM (active)
- EC50 [6]: > 60 µM (not active)
- IC50 [7]: > 20 µM (inactive)
- AC50 [8]: 7.12 µM (active)
- AC50 (A-375): 36.8 µM (active)
- AC50 (INS1; Rattus norvegicus, INS1): 3.63 µM (active)
- AC50 (INS1; ins1): 2.8 µM (active)
- EC50 (cells [9]): 0.409 µM (active)

SMILES: COc1ccc(C2C=C(c3ccc(Cl)cc3)Nc3nc(NC(C)=O)nn32)cc1 (stereo not given)
- IC50 (Estrogen receptor): 21.9 µM (active)

SMILES: COc1ccc(-n2nc(C(=O)NCC(=O)Nc3ccccn3)c3ccccc3c2=O)cc1Cl
- EC50 [10]: 19.2 µM (not active)
- EC50 [11]: 25.8 µM (not active)
- EC50 [12]: 37.7 µM (not active)
- EC50 (BJ [13]): 31.5 µM (active)
- EC50 (BJ [14]): 21.6 µM (active)
- IC50 [15]: > 69.5 µM (not active)
- EC50 (BJ [16]): > 150 µM (not active)
- EC50 [17]: 28.5 µM (active)
- IC50 [18]: 1.98 µM (active)
- EC50 (Melanocortin receptor 4): > 89.2 µM (inactive)
- IC50 [19]: 42.3 µM (inactive)
- IC50 [20]: 3.14 µM (active)

SMILES: O=c1cc(CSc2nnc(-c3cccs3)n2Cc2ccccc2)nc2sc3ccccc3n12
- IC50 (Estrogen receptor beta [21]): < 1.56 µM (active)
- IC50 (Estrogen receptor beta [22]): 19.3 µM (not active)
- IC50 [23]: 5.42 µM (active)
- IC50 (Galanin receptor type 3): 0.482 µM (active)
- EC50 (cells [24]): > 29.9 µM (inactive)

SMILES: c1cc2ccc3ccc(CN4CCOCC4)c4ccc(c1)c2c34
- IC50 [15]: > 69.5 µM (not active)

SMILES: COc1ncccc1-c1nnn(-c2ccccc2)n1
- IC50 (Bcl-2-related protein A1 [2]): > 100 µM (not active)
- IC50 (Bcl-2-related protein A1 [3]): > 100 µM (not active)

SMILES: Cc1ccc(S(=O)(=O)Cc2ccc(C(=O)N3CCN(Cc4ccccc4)CC3)o2)cc1
- IC50 (Estrogen receptor beta [21]): 8.83 µM (active)
- IC50 (Estrogen receptor beta [22]): 19.2 µM (not active)

SMILES: O=C(Cn1nnc(-c2ccccc2NC(=O)c2ccccc2)n1)Nc1ccc2c(c1)OCCO2
- IC50 [25]: 16.4 µM (not active)
- IC50 [26]: > 111 µM (not active)

SMILES: CCOc1ccc(NC(=O)C(=O)N/N=C\c2ccc(CNS(=O)(=O)c3ccccc3)o2)cc1
- IC50 [25]: 7.23 µM (active)
- IC50 [26]: > 111 µM (not active)
